Read-outs that look alike come from different tables or passages of the source. Marks after values point to notes of the source that are not given here.
Columns and labels:
[1] = Literature plasma and brain levels after oral dosing (Torii et al., Nagai et al.); type: in vivo; details: rats, oral 10 mg/kg
Method: Beyond the high first-pass effect, a further drawback of compounds of formula (I), and again exemplified with compound IA as a representative for this compound class, is the fact, that these compounds are reaching the brain only in very limited amounts when given orally. For example, it is known from the literature (Torii H, Yoshida K, Kobayashi T, Tsukamoto T, Tanayama S. J Pharmacobiodyn. 1985 Jun;8(6):457-67) that an oral dose of 10 mg/kg of idebenone (compound IA) in rats leads to plasma levels of approximately 1000 ng/ml of total idebenone as measured by radioactivity after oral dosing of radioactive labeled compound IA. The total concentration means idebenone including its metabolites. […] The corresponding levels in the brain are 10 ng/ml of total idebenone (which again means including the metabolites), resulting in only 0.03 ng/ml for parent idebenone itself. As a result, the ratio of brain vs plasma levels is about 1%. This is in line with the findings of Nagai et al (Nagai Y, Yoshida K, Narumi S, Tanayama S, Nagaoka A. Brain distribution of idebenone and its effect on local cerebral glucose utilization in rats. Arch Gerontol Geriatr. 1989;8(3):257-72), where higher oral doses of idebenone (100 mg/kg) are leading to similar low brain- to-plasma ratio of 1-2% in rats.

[2] = Pharmacokinetic analysis in plasma and eye fluids after oral administration; type: in vivo, mice; details: for Kp: single oral 400 mg/kg; for AUC(0-t): read-out: AUC0-6h
Method: Pharmacokinetic analysis of test compounds after oral administration aims to determine its bioavailability and clearance in the plasma and in the eye fluids (aqueous and vitreous humor). The test compounds are quantified in the plasma and in the aqueous and vitreous humor after acute and repeated treatment (with different routes of administration). The time-dependent concentration is then determined and pharmacokinetic parameters (Cmax, AUC0-t, tmax) are calculated.
Experimental procedure: Male wild-type C57BL/6J mice (7 weeks old, about 25 g body weight) are individually housed in Makrolon type II cages with standard bedding and free access to food and water under a regular 12-hours light-dark cycle (8 a.m. to 8 p.m.). Mice receive single or daily repeated oral doses of the test compounds (ranging from 20 to 2000 mg/kg of body weight) or the vehicle administered though the diet or by gavage at the end of the light phase. The treatment can be followed by a washout period. Samples for pharmacokinetic analysis are taken at different time intervals following compound administration. Mice are anesthetized by 5% isofluran inhalation in an induction chamber and sacrificed by cervical dislocation. Blood is collected from the head cut for plasma extraction. Eye balls are dissected out to collect aqueous and vitreous humor. Samples are snap frozen in liquid nitrogen and stored (-80°C) until analyzed by LC-MS/MS and accordingly to standardized procedures. All mouse procedures are performed in accordance with the Swiss regulation and under a license approved by the "Kantonales Veterinäramt Basel-Land".
The pharmacokinetic profile of idebenone (compound IA) was assessed, following a single oral gavage dose to male mice. […] Furthermore, the ratio (vitreous humor /plasma and aqueous humor/plasma) appeared to be independent of the time post dose, consistent with a lack of accumulation of idebenone in the eye. The overall extent of exposure to idebenone in the vitreous humor, as measured by AUC0-6h, represented about 2 % of that observed in plasma (vitreous/plasma ratio; Table 8). Similarly, the extent of exposure to idebenone in the aqueous humor represented about 3 % of that observed in plasma (aqueous/plasma ratio; Table 8).

C57BL/6J mice = test: Mouse model of intravitreal rotenone injection, histopathological analyses of retinal degeneration, first study; type: in vivo; details: ± SEM; for Gliosis: GFAP immunostaining RFU; for Gliosis / Retinal thickness: 7 days post-injection; for Glutamine-synthetase: GS immunostaining RFU; for Glutamine-synthetase / RGC number: 1 day post-injection
Description: This mouse model is used to assess the therapeutic potential of compounds in eye disorders characterized by mitochondrial dysfunction such as LHON, DOA, macular degeneration, retinopathy, and complex I deficiency. It is a widely accepted in vivo model based on single-eye intravitreal injection of the mitochondrial complex I inhibitor rotenone in the adult mouse. Intravitreal injection of rotenone induces neurotoxicity through mitochondrial complex I dysfunction in the retina which is the main molecular dysfunction […]. […] Histological analysis includes quantitative measurement of the retinal thickness (whole retina and individual layers), RGC apoptosis and cell death, oxidative stress, glutamine synthetase expression, and gliosis. The non-injected eye is used as a within subject, i.e. intraindividual, control. Male wild-type C57BL/6J mice (7 weeks old, about 25 g body weight) are individually housed in Makrolon type II cages with standard bedding and free access to food and water under a regular 12-hours light-dark cycle (8 a.m. to 8 p.m.). […] The injection is performed over a period of 2 min and the needle is kept in place for an additional 3 min, after which it is gently removed. Sterile surgical glue (Histoacryl, BRAUN/Aesculap AG, Germany) is used to seal the site of injection and a sterile antimicrobial ophtalmic ointment (Neosporin, GlaxoSmithKline, UK) is applied to the injected eye to avoid any infection. […] The eye balls are removed, retinas are dissected, fixed for an additional 2 h at 4°C, incubated in PB 0.1 M and 30% sucrose overnight, frozen in optimal cutting temperature compound (O.C.T., Tissue-Tek, Miles Laboratories, Elkhart, IN, USA), sliced at 14 µm, and collected onto glass slides for immunostaining. Immunostaining is performed accordingly to conventional method using multiple primary antibodies. Fluorescent-conjugated secondary antibodies and DAPI are used for visualization under a fluorescence microscope. All procedures are performed in accordance with the Swiss regulation and under a license approved by the "Kantonales Veterinäramt Basel-Land". Results: […] Table 5 In Table 5, the histological data are expressed as % of sham (DMSO) injected control ± SEM. […] IA 400 means a pretreatment with Compound IA at 400 mg/kg, similarily IA 2000 means a pretreatment with Compound IA at 2000 mg/kg. Statistical significance relative to vehicle + rotenone group is p ≤ 0.05 (*), p ≤ 0.01 (**). n is the number of retinas per group.

[3] = correction factor calculated from Torii et al
[4] = C57BL/6J, mouse, Aqueous Humor, single oral administration at 400 mg/kg, male mice
[5] = C57BL/6J, mouse, Plasma, single oral administration at 400 mg/kg, male mice
[6] = C57BL/6J, mouse, Vitreous Humor, single oral administration at 400 mg/kg, male mice
[7] = 400 mg/kg pretreatment 3 weeks + rotenone
[8] = 2000 mg/kg pretreatment 3 weeks + rotenone

SMILES: COC1=C(OC)C(=O)C(CCCCCCCCCCO)=C(C)C1=O [Compound IA, Idebenone]
- Kp ([1]; rat, brain / plasma, read-out: ratio of brain vs plasma levels): ~0.01
- idebenone plasma levels (unmetabolized parent) [1, 3]: 3 ng/mL
- levels in the brain of parent idebenone [1, 3]: 0.03 ng/mL
- Kp ([2]; C57BL/6J, mouse, aqueous humor / plasma, male mice, read-out: extent of exposure in the aqueous humor relative to plasma): ~0.03
- Kp ([2]; C57BL/6J, mouse, vitreous humor / plasma, male mice, read-out: extent of exposure in the vitreous humor (AUC0-6h) relative to plasma): ~0.02
- Cmax [2, 4]: 86.2 ng/mL
- Tmax [2, 4]: 15 min
- AUC(0-t) [2, 4]: 62.6 ng·h/mL
- AUC(0-inf) [2, 5]: 1960 ng·h/mL
- Cmax [2, 5]: 1070 ng/mL
- Tmax [2, 5]: 15 min
- half-life [2, 5]: 102 min
- AUC(0-t) [2, 5]: 1860 ng·h/mL
- Cmax [2, 6]: 37.9 ng/mL
- Tmax [2, 6]: 15 min
- AUC(0-t) [2, 6]: 38.1 ng·h/mL
- λz ([2]; Plasma, single oral administration at 400 mg/kg, male mice): 0.409 h⁻¹
- time of maximum in vitreous and aqueous humors (up-take into the eye) ([2]; oral dietary or gavage administration, mouse, post-dose): < 15 min
- time of maximum concentration in plasma, vitreous and aqueous humors ([2]; single oral dose of 400 mg/kg, first sampling time post-dose): 15 min
- Gliosis (C57BL/6J mice; 400 mg/kg + rotenone): 112.7 ± 11.9 * (n=3) % of sham (DMSO) injected control
- Glutamine-synthetase (C57BL/6J mice; 400 mg/kg + rotenone): 98.5 ± 1.9 (n=5) % of sham (DMSO) injected control
- RGC number (C57BL/6J mice; [7]): 94.6 ± 3.2 ** (n=3) % of sham (DMSO) injected control
- Retinal thickness (C57BL/6J mice; [7]): 84.3 ± 2.9 ** (n=3) % of sham (DMSO) injected control
- Gliosis (C57BL/6J mice; 2000 mg/kg + rotenone): 134.7 ± 10.7* (n=3) % of sham (DMSO) injected control
- Glutamine-synthetase (C57BL/6J mice; 2000 mg/kg + rotenone): 99 ± 2.9 * (n=6) % of sham (DMSO) injected control
- RGC number (C57BL/6J mice; [8]): 101.3 ± 11.3 (n=3) % of sham (DMSO) injected control
- Retinal thickness (C57BL/6J mice; [8]): 76.9 ± 10.1 (n=4) % of sham (DMSO) injected control

— patent EP2605769B1, “BENZOQUINONE DERIVATIVES FOR THE TREATMENT OF MITCHONDRIAL EYE DISEASES” (Santhera Pharmaceuticals (Schweiz) AG, priority 2010, dated 2012)
